Patent US20240383942A1, “WATER-SOLUBLE ALLOPR[…], AND PREPARATION METHOD THEREFOR AND USE THEREOF” (NANJING MINOVA PHARMACEUTICAL CO., LTD., priority 2021, published 2024)
Structures can show the parent of a compound that is named as a salt.

Columns and labels:
[1] = Saturation solubility by external standard HPLC method; type: physicochemical; conditions: thermodynamic from solid; purified water, 25° C., stirred 24 h
Protocol: Preparation of an external standard solution: 50 mg of a compound to be tested was precisely weighed out, added to a 10 mL volumetric flask, and dissolved in a proper amount of purified water by ultrasonication. The solution was diluted to volume and mixed well to give an external standard solution with a concentration of 5.0 mg/mL.
The solution was stirred for dissolution for 24 h at 25° C. and centrifuged. The supernatant was taken and filtered through a 0.45 μm filter membrane, and the filtrate was collected. 1 mL of the filtrate described above was precisely measured out and added to a 5 mL measuring flask. Purified water was added to dilute the filtrate to volume, and the solution was mixed well to give a solution to be tested.
2. Determination of Saturation Solubility by External Standard Method
Chromatographic Conditions
Chromatographic column: Waters XBridge C8 3.5 μm 4.6×100 mm NRT2019-21#, column temperature: 45° C., detection wavelength: 205 nm;
Mobile phase A: a 10 mM/L (NH4)2HPO4 solution, mobile phase B: acetonitrile, isocratic elution A:B=40:60, flow rate: 1.0 mL/min;
Injection volume: 10 μL, run time: 10 min.
Purified water was used as a blank control solution, and the peak areas of the external standard solution and the standard solution were measured using a high performance liquid chromatograph with a UV detector and denoted as Aexternal standard and Ato be tested, respectively.

[2] = In vitro metabolic study in human liver microsome incubation system; conditions: for Concentration of the compound to be tested (parent): human liver microsomes 0.5 mg protein/mL, NADPH, 37° C.
Protocol: Instruments, conditions and parameters: liquid chromatography-mass spectrometry system (LC/MS/MS, Shimadzu LC 30-AD, MS API 4000); the chromatographic column was ACQUITY UPLC BEH C18 column (1.7 μm 2.1×50 mm Column, Part No. 186002350); the mobile phase was acetonitrile-water-formic acid (50:50:0.1); the flow rate was 0.7 mL/min; the injection volume was 5μL; the column temperature was room temperature. An electrospray ionization (ESI) source was adopted with a spray voltage of 4.8 KV; the capillary temperature (TEM) was 300° C.; the sheath gas was N2, and the flow rate was 10 psi; the auxiliary gas was N2, and the flow rate was 1 psi; the collision-induced dissociation (CID) gas was Ar, and the pressure was 1.5 mTorr. The mass spectrometry scan mode was mass spectrometry multiple reaction monitoring (MRM), and the positive ion mode was used for detection.
About 10 mg of each of the samples to be tested was precisely weighed out and dissolved in 0.1 mL of DMSO, and the solution was stepwise diluted with purified water to prepare 10 μM and 1 μM standard stock solutions. In an ice bath, the detection incubation system was prepared according to Table 3. NADPH was added to the incubation system (see Table 4 for its composition) to start a reaction, and 50 μL of the resulting mixture was taken immediately and added to 150 μL of acetonitrile as a time-zero sample and a 1 μM standard curve sample. Another 1 μM standard stock solution was added to the incubation system, and 50 μL of the resulting mixture was taken immediately and added to 150 μL of acetonitrile as a 0.1 μM standard curve sample. […] Each sample was shaken and centrifuged at 18,000 g for 10 min, and a sample of the supernatant was taken and injected for LC/MS/MS analysis.

[3] = in the human body; cited from earlier work
[4] = molecular target: hERG potassium channel (Homo sapiens, UniProt Q12809); assay: Manual patch clamp assay of hERG potassium channel current in CHO-hERG cells
Sequence of hERG potassium channel (Q12809 whole entry): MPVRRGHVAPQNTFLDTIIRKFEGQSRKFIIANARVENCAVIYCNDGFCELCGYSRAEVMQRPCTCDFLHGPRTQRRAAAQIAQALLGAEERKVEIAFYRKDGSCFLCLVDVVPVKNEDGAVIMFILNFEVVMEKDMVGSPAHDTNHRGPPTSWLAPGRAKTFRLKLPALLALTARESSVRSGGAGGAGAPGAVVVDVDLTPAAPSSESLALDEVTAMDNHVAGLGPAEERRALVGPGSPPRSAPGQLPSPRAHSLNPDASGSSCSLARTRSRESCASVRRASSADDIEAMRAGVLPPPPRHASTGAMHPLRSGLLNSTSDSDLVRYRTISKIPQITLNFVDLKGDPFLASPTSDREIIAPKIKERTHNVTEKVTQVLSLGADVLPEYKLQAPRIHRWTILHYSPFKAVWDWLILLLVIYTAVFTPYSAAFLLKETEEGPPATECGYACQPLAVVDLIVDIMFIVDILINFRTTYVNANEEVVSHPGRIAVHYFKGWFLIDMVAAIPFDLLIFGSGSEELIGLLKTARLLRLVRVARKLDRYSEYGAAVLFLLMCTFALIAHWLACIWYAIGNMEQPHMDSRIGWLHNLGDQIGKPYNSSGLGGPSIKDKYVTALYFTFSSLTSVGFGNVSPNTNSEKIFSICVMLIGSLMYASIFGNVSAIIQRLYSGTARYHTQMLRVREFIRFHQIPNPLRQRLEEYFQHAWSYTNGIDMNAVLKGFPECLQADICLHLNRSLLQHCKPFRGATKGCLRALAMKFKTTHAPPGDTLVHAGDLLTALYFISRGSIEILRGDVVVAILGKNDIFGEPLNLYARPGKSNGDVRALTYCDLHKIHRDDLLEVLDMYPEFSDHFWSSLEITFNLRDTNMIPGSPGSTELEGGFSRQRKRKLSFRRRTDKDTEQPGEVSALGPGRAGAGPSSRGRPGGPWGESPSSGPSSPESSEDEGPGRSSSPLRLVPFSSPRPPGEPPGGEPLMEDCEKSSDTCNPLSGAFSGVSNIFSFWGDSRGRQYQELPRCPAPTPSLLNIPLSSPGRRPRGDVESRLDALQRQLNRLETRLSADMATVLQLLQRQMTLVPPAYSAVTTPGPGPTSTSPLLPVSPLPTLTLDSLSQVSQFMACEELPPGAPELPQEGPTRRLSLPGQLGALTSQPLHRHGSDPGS
Protocol: The manual patch clamp method was used to measure the effect of the compounds on hERG potassium channel current stably expressed in Chinese hamster ovary cells.
Manual patch clamp assay method:
CHO-hERG cells in the exponential growth phase were collected and resuspended in ECS (extracellular solution) for later use. The cells were seeded in a cell recording chamber, and the chamber was placed on the stage of an inverted microscope. One of the cells in the tank was randomly selected for testing. The perfusion system was fixed onto the stage of the inverted microscope, and the cell was perfused continuously with ECS. […]
The clamping voltage was −80 mV. […] The peak value of the tail current was measured and used for analysis. […] In the initial stage of recording the perfusion with the solvent control working solution, the peak value of the tail current was monitored until 3 or more scanning curves were stabilized, and then perfusion was performed with the test sample/positive control working solution to be tested until the inhibitory effect of the test sample/positive control working solution on the peak value of the hERG current reached a stable state.
The hERG current was recorded under the whole cell patch clamp technology at room temperature. […] Data were collected and recorded by Patchmaster Pro software and processed using Origin 8E software, and hERG IC50 values were calculated.

SMILES | solubility at 24 h [1] [mg/mL] | Concentration of the compound to be tested (parent) ([2]; incubation time 0 min) [nM] | Concentration of the compound to be tested (parent) ([2]; incubation time 5 min) [nM] | Concentration of the compound to be tested (parent) ([2]; incubation time 15 min) [nM] | Concentration of the compound to be tested (parent) ([2]; incubation time 30 min) [nM] | Concentration of the compound to be tested (parent) ([2]; incubation time 45 min) [nM] | Concentration of the compound to be tested (parent) ([2]; incubation time 60 min) [nM] | plasma half-life [3] | concentration of allopregnanolone resulting from metabolism reaching a stable level (in words) ([2]; liver microsome system) | IC50 [4] [nM]
CC(=O)[C@H]1CC[C@H]2[C@@H]3CC[C@H]4C[C@H](O)CC[C@]4(C)[C@H]3CC[C@]12C [Allopregnanolone, 3α-OH-5α-pregnan-20-one] | < 0.01 | 1000 | 626 | 414 | 259 | 150 | 119 | about 45 minutes | – | –
CC(=O)[C@H]1CC[C@H]2[C@@H]3CC[C@H]4C[C@H](OC(=O)[C@@H](N)C(C)C)CC[C@]4(C)[C@H]3CC[C@]12C [Comparative compound 1 hydrochloride] | 29.9 | – | – | – | – | – | – | – | – | –
CC(=O)[C@H]1CC[C@H]2[C@@H]3CC[C@H]4C[C@H](OC(=O)[C@@H](N)C(C)C)CC[C@]4(C)[C@H]3CC[C@]12C [Comparative compound 1] | – | 1000 | 801 | 680 | 484 | 306 | 256 | – | unable to achieve a stable level | 770
[2H]C(C)(C)[C@H](N)C(=O)O[C@@H]1CC[C@@]2(C)[C@@H](CC[C@@H]3[C@@H]2CC[C@]2(C)[C@@H](C(C)=O)CC[C@@H]32)C1 [Compound 1 hydrochloride] | 31.2 | – | – | – | – | – | – | – | – | –
[2H]C(C)(C)[C@H](N)C(=O)O[C@@H]1CC[C@@]2(C)[C@@H](CC[C@@H]3[C@@H]2CC[C@]2(C)[C@@H](C(C)=O)CC[C@@H]32)C1 [Compound 1] | – | 1000 | 956 | 874 | 575 | 423 | 352 | – | – | 1930
[2H]C([2H])([2H])C([C@H](N)C(=O)O[C@@H]1CC[C@@]2(C)[C@@H](CC[C@@H]3[C@@H]2CC[C@]2(C)[C@@H](C(C)=O)CC[C@@H]32)C1)C([2H])([2H])[2H] [Compound 2 hydrochloride] | 36.1 | – | – | – | – | – | – | – | – | –
[2H]C(N)(C(=O)O[C@@H]1CC[C@@]2(C)[C@@H](CC[C@@H]3[C@@H]2CC[C@]2(C)[C@@H](C(C)=O)CC[C@@H]32)C1)C(C)C (stereo partly drawn) [Compound 3 hydrochloride] | 19 | – | – | – | – | – | – | – | – | –
O=C(O)Cc1ccccc1Nc1c(Cl)cccc1Cl [Diclofenac, diclofenac] | – | 1000 | 374 | 77 | 8 | 1 | 1 | – | – | –
C[C@]12CC[C@H]3[C@@H](CCC4=CC(=O)CC[C@@]43C)[C@@H]1CC[C@@H]2O [Testosterone, testosterone] | – | 1000 | 677 | 379 | 155 | 63 | 44 | – | – | –
